Entries after “also recorded” stand apart in the source; their conditions may differ. Like-named read-outs stand apart in the source and are kept apart here.
Legend:
[1] = Neutral Red cell viability assay on JEG-Tox cells, 72 h; format: cell-based, human; conditions: human
Description: (§1) The JEG-3 human trophoblast cell line, derived from a human placental carcinoma, was obtained from the American Type Culture Collection (ATCC HTB-36). Cells were cultured in minimum Essential medium, supplemented with 10% fetal bovine serum (FBS), 1% L-glutamine, 0.5% penicillin and streptomycinin, in 75 cm2 polystyrene flasks. Cell cultures were maintained in a cell culture incubator (37° C., saturated humidity, 5% CO2). When the JEG-3 cells reached subconfluency, they were detached using trypsin-EDTA and counted. The cellular suspension was diluted and seeded either in 96-well microplates at a cellular density of 80,000 cells/mL or in 6-well microplates at 120,000 cells/mL, then kept at 37° C. for 24 h. The cells were incubated with EDCs according to example 1.
(§2) Cell viability was evaluated using the Neutral Red assay. The Neutral Red solution at 0.4% (m/v in water) was diluted in cell culture medium to obtain a working concentration of 50 μg/mL. […] The cells were then rinsed with PBS and lysed with a solution of acetic acid-ethanol (ethanol 50.6%, water 48.4% and acetic acid 1%). After homogenization, the fluorescence signal was scanned (λexc=540 nm, λem=600 nm) with a Tecan Spark microplate reader (Mannedorf, Switzerland). The cell viability was calculated compared to the control cells (the fluorescence of the control cells as 100% viability).

[2] = test system: JEG-Tox cells; experiment: as above; format: cell-based, human; conditions: 72 h
Description: as §1, §2

[3] = biological target: T1, P2X7 receptor (Homo sapiens, UniProt Q99572); format: cell-based; conditions: 72 h; for P2X7 receptor activation (in words): JEG-Tox; for P2X7 activation (concentration): Table 4 summary
T1 construct: P2X7 receptor is expressed by human placenta and JEG-Tox; endogenous in cells; host or cells: JEG-3 human trophoblast cell line (ATCC HTB-36) cultured in 2.5% FBS (JEG-Tox)
T1 sequence (Q99572 1-595): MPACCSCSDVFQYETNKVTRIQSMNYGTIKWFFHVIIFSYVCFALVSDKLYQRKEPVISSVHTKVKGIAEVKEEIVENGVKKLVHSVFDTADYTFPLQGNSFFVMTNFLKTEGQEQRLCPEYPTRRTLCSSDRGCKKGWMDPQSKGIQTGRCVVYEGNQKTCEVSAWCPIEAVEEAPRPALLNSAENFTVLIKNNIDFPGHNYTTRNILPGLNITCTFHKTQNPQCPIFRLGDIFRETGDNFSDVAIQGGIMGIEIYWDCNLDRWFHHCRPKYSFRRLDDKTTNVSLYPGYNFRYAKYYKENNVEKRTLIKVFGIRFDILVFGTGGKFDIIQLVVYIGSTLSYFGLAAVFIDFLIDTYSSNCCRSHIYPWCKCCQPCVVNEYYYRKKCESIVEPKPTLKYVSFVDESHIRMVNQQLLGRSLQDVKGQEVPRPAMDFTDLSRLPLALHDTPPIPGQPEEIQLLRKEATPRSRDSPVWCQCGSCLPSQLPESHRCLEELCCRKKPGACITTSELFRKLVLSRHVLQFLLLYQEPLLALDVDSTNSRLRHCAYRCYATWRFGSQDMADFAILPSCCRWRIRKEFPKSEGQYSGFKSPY
Description: (§3) P2X7 cell death receptor activation was evaluated using the YO-PRO-1® assay (Rat et al. J Biol Methods. 2017 Jan. 20; 4(1):e64). YO-PRO-1® probe only enters into cells after P2X7 receptor activation-induced pore opening, and binds to DNA, emitting fluorescence. A 1 mM YO-PRO-1 stock solution was diluted at 1/500 in PBS just before use and distributed into the wells of the microplate. After a 10-minute incubation time at room temperature, fluorescence signal was read (λex=491 nm, λem=509 nm) with a Spark cytofluorometer.
as §3, with “al., 2017).” for “al. J Biol Methods. 2017 Jan. 20; 4(1):e64).”, “(λex=485” for “(λex=491”, “λem=531” for “λem=509”

[4] = test system: caspase-1; experiment: Caspase 1 activity, Caspase-Glo 1 Inflammasome Assay; format: cell-based, human; conditions: 72 h; for Casp-1 activation (concentration): Table 4 summary; for caspase-1 activity compared to control: highest concentration tested
Description: Caspase 1 activity was evaluated using the Caspase-Glo® 1 1 Inflammasome Assay kit. The assay was performed according to the manufacturer's instructions. Luminescence was quantified with a Spark microplate reader.
Caspase 1 activity was evaluated using the Caspase-Glo®1 Inflammasome Assay kit. The assay was performed according to the manufacturer's instructions. Luminescence was quantified with a Spark microplate reader.

[5] = test system: JEG-Tox cells; experiment: Chromatin condensation (Hoechst 33342) as a hallmark of apoptosis; format: cell-based, human; conditions: 24 h
Description: The UV fluorescent probe Hoechst 33342 enters living and apoptotic cells, intercalating into DNA. The fluorescent signal is proportional to chromatin condensation in apoptosis. The cells were incubated with Hoechst 33342 at 10 μg/mL for 30 minutes at room temperature. The fluorescence signal was read (λex=360 nm, λem=460 nm) using a cytofluorometer (Spark).

[6] = test system: caspase-9; experiment: Caspase 9 activity, Caspase-Glo 9 Assay; format: cell-based, human; conditions: 10 μM
Description: Caspase 9 activity was evaluated using the Caspase-Glo® 9 Assay kit. The assay was performed according to the manufacturer's instructions. Luminescence was quantified with a Spark microplate reader.

[7] = test system: JEG-3 cells; experiment: Neutral red cell viability of JEG-3 cells with SLS or PFOA in 10% or 2.5% FBS; conditions: for living cells: 2.5% FBS
Description: The choriocarcinoma-derived JEG-3 cell-line (ATCC® HTB-36™, Manassas, VA, USA), was grown as recommended by ATCC: Minimum Essential Medium Eagle's medium supplemented with 10% fetal bovine serum, 2 mM of glutamine, 50 IU/mL of penicillin and 50 IU/mL of streptomycin. Cells were detached using trypsin, counted, and then seeded at 80,000 cells/mL in 96-well microplates (200 μL by well) and Nunc® Lab-Tek® II Chamber Slide™ system for immunostaining.
Cells were incubated with sodium lauryl sulfate or perfluorooctanoic acid diluted in culture medium supplemented with either 2.5% or 10% FBS. After 24 hours, cell viability was evaluated using the neutral red assay. Neutral Red solution at 0.4% in water was diluted in culture medium with a ratio of 1:79 to give a final concentration of 50 μg/mL. Neutral Red was distributed in the plates for a 3-hour incubation time at 37° C. The cells were then rinsed with PBS to remove any remaining unincorporated dye. The dye was then released from the cells using a lysis solution (1% acetic acid, 50% ethanol and 49% H2O) and the fluorescence was measured (λex=540 nm, λem=600 nm) using Spark microplate fluorometer (Tecan, Mannedorf, Switzerland).

[8] = Table 4 summary, loss of viability >= 30% counted as cytotoxic

Structure (SMILES) | cytotoxicity (concentration) [2, 8] | P2X7 receptor activation (in words) [3] | P2X7 activation (concentration) [3] [µM] | effect on caspase-1 activity [4] | Casp-1 activation (concentration) [4] | concentration at which chromatin condensation was initiated [5] | other results
Oc1cc(Cl)ccc1Oc1ccc(Cl)cc1Cl [triclosan] | 10 µM | triggered P2X7 receptor activation | 1 | no effect | No |  | viability at 72 h, 10 µM ([1]; JEG-Tox cells, 10 μM, 72 h): 60%; P2X7 receptor activation compared to control ([3]; 1 μM): 1.13 fold change
CCCOC(=O)c1ccc(O)cc1 [propylparaben] |  | triggered P2X7 receptor activation | 1 to 100 | activated caspase-1 | 100 µM | 20 µg/mL | viability at 72 h, 100 µM [1]: 87%; P2X7 receptor activation compared to control ([3]; 100 μM): 1.69 fold change; caspase-1 activity compared to control [4]: 2.7 fold change
CCCCOC(=O)c1ccccc1C(=O)OCc1ccccc1 [benzyl butyl phthalate] | 50 µM | triggered P2X7 receptor activation | 0.1 to 10 | no effect | no |  | viability at 72 h, 50 µM ([1]; 50 μM, 72 h, read-out: cell viability): 40%; P2X7 receptor activation compared to control ([3]; 10 μM): 1.36 fold change; caspase-9 activity compared to control [6]: 1.28 fold change
Clc1ccc(C(c2ccc(Cl)cc2)C(Cl)(Cl)Cl)cc1 [4,4′DDT] |  |  |  |  |  | 2 µg/mL | 
CCCCOC(=O)c1ccccc1C(=O)OCCCC [dibutyl phthalate] |  | triggered P2X7 receptor activation | 0.01 to 50 | no effect | no |  | viability at 72 h, 50 µM [1]: 55%; cytotoxicity (concentration) ([2]; human): 50 µM; P2X7 receptor activation compared to control ([3]; 10 μM): 1.6 fold change
CCC(C)(C)c1ccc(O)cc1 [4-tert-amylphenol] | no | triggered P2X7 receptor activation | 0.1 to 50 | activated caspase-1 | 50 µM |  | concentration up to which no loss of cell viability was observed [2]: up to 50 μM; P2X7 receptor activation compared to control ([3]; 50 μM): 1.36 fold change; caspase-1 activity compared to control [4]: 1.5 fold change
OCCOc1ccccc1 [phenoxyethanol] |  |  |  |  |  | 0.15% | 
CC12CCC(/C(=C/c3ccccc3)C1=O)C2(C)C (stereo not shown) [3-benzylidene camphor] | 50 µM | triggered P2X7 receptor activation | 1 to 10 | no effect | no |  | viability at 72 h, 50 µM ([1]; JEG-Tox cells, 50 μM, 72 h, read-out: cell viability): 70%; P2X7 receptor activation compared to control ([3]; 10 μM): 1.50 fold change
CCO [ethanol] |  |  |  |  |  | 2.5% | 
CCOP(=S)(OCC)Oc1cnc2ccccc2n1 [quinalphos] |  |  |  |  |  | 0.3 µg/mL | 
CC/C(=C(/CC)c1ccc(O)cc1)c1ccc(O)cc1 [diethylstilbestrol] | 15 µM | triggered P2X7 receptor activation | 7.5 | activated caspase-1 | 7.5 µM |  | viability at 72 h, 15 µM ([1]; JEG-Tox cells, 15 μM, 72 h): 40%; P2X7 receptor activation compared to control ([3]; 7.5 μM): 1.48 fold change; caspase-1 activity compared to control [4]: 1.84 fold change
CCCCCCCCCCCCOS(=O)(=O)[O-].[Na+] [SLS, sodium lauryl sulfate] |  |  |  |  |  |  | living cells ([7]; 30 μg/mL, 24 h): 37%; living cells ([7]; 50 μg/mL, 24 h): 10%; effect on JEG-3 cell viability ([7]; 10% FBS, all tested concentrations (up to 50 μg/mL), 24 h, sulfate): no effect; also recorded: did not observe any cell death; concentration inducing a dramatic loss of cell viability ([7]; diluted in 2.5% FBS): 30000 ng/mL

Source: patent US20240118268A1, “BIOMARKERS ON CELLULAR ENDOCRINE MODELS FOR ENDOCRINE DISRUPTION ASSESSMENT” (priority 2020, published 2024)
